Measurements taken from patent US20240358693A1, “METHODS OF TREATING PAIN” (Aisa Pharma, Inc., priority 2023, published 2024).

Tested on: participants with Raynaud's Phenomenon secondary mostly to systemic sclerosis (SSc-RP)
Assay: Frequency of weekly symptomatic RP attacks (patient diary), Phase 2a study Part A
Type: in vivo, human
Conditions: ITT Part A
Procedure: A randomized, placebo-controlled phase 2a study was performed and is in progress to assess the safety and efficacy of cilnidipine (10 mg and 20 mg) alone and in combination with 5 mg tadalafil, in participants with diagnosis of scleroderma and/or secondary Raynaud's disease.
The relevant metrics measured by this tool daily are: • Study medication • SSc-RP symptoms (Reporting an attack including duration of attack) • Severity of the attack considering all symptoms of the attack e.g., tingling, numbness, pain, color changes (VAS 0-10 cm scale) • Participant's location at the time of the attack (inside home/outside home) • Selecting symptoms experienced during the attack (tingling, numbness, pain, color changes, other) • Pain rating during the attack (11-point Likert scale) • The RCS based on how much difficulty participants had with Raynaud's today, how many attacks the participant had, and how long they lasted. Participants will also be asked to consider how much pain, numbness, or other symptoms the Raynaud's caused in fingers (including painful sores), and how much the Raynaud's alone affected the use of hands today (VAS 0-10 cm scale).
Percent change from baseline evaluation for frequency of weekly RP attacks were or will be used as the primary efficacy variable. The sponsor-developed participant-informed diary will be used to record data. Frequency of weekly RP attacks is defined as the total number of RP attacks divided by the number of days with available diary data within the last 7 days of each dosing period then multiplied by 7. Total number of RP attacks during the last 7 days of screening period divided by the number of days with available data then multiplied by 7 will be used as baseline for the analysis of all periods. The variable will be calculated as follows:
Percentage change={(weekly RP attacks for the last 7 days of each dosing period−Baseline weekly RP attacks)/Baseline weekly RP attacks}*100%.
Absolute change=weekly RP attacks for the last 7 days of each dosing period−Baseline weekly RP attacks
Percent change from baseline evaluation for frequency of weekly RP attacks was and will be the primary efficacy endpoint. Frequency of weekly RP attacks is defined as the total number of RP attacks divided by the number of days with available diary data within the last 7 days of each dosing period then multiplied by 7. Total number of RP attacks during the last 7 days of screening period divided by the number of days with available data then multiplied by 7 will be used as baseline for the analysis of all periods.
The following data was actually obtained in accordance with the protocol and plan delineated in Examples 1 and 2. The accompanying data involved 11 patients out of the planned 76 patient study. The study was done in patients with scleroderma (systemic sclerosis) who had relatively frequent Raynaud symptoms as they needed to average at least one attack per day during a screening period of up to two weeks. In this first phase of this double-blind placebo-controlled, prospective randomized study, patients were treated in parallel and after meeting study criteria were randomized to receive either placebo, cilnidipine 10 mg daily, cilnidipine 20 mg daily, tadalafil 5 mg daily, cilnidipine 10 mg plus 5 mg of tadalafil, or cilnidipine 20 mg plus 5 mg of tadalafil.

[1] = Cilnidipine 10 mg, n 1, Excluding Outliers
[2] = Cilnidipine 10 mg, n 1, by Baseline RCS, 1st block (RCS <5.0)
[3] = Cilnidipine 20 mg, n 2, Excluding Outliers
[4] = Cilnidipine 20 mg, n 2, by Baseline RCS, 1st block (RCS <5.0)
[5] = Pooled Cilnidipine 10 mg and Cilnidipine 10 mg + Tadalafil 5 mg (N = 3)
[6] = Pooled Cilnidipine 10 mg and Cilnidipine 10 mg + Tadalafil 5 mg, n 1, by Baseline RCS, 2nd block (RCS >5.0)
[7] = Pooled Cilnidipine 10 mg and Cilnidipine 10 mg + Tadalafil 5 mg, n 2, by Baseline RCS, 1st block (RCS <5.0)
[8] = Pooled Cilnidipine 10 mg and Cilnidipine 10 mg + Tadalafil 5 mg, n 3, Excluding Outliers
[9] = Pooled Cilnidipine 20 mg and Cilnidipine 20 mg + Tadalafil 5 mg (N = 4)
[10] = Pooled Cilnidipine 20 mg and Cilnidipine 20 mg + Tadalafil 5 mg, n 1, by Baseline RCS, 2nd block (RCS >5.0)
[11] = Pooled Cilnidipine 20 mg and Cilnidipine 20 mg + Tadalafil 5 mg, n 3, by Baseline RCS, 1st block (RCS <5.0)

COCCOC(=O)C1=C(C)NC(C)=C(C(=O)OC/C=C/c2ccccc2)C1c1cccc([N+](=O)[O-])c1 (stereo not shown) [Cilnidipine, cilnidipine]
Weekly Symptomatic RP Attacks Change from Baseline, Mean (Cilnidipine 10 mg (N = 1)): −7.00 | Weekly Symptomatic RP Attacks Change from Baseline, Median (Cilnidipine 10 mg (N = 1)): −7.00 | Weekly Symptomatic RP Attacks Percent Change from Baseline, Mean (Cilnidipine 10 mg (N = 1)): −33.33% | Weekly Symptomatic RP Attacks Percent Change from Baseline, Median (Cilnidipine 10 mg (N = 1)): −33.33% | Weekly Symptomatic RP Attacks, Mean (Cilnidipine 10 mg (N = 1)): 14.00 | Weekly Symptomatic RP Attacks, Median (Cilnidipine 10 mg (N = 1)): 14.00 | Weekly Symptomatic RP Attacks Change from Baseline, Mean (SD) [1]: −7.00 | Weekly Symptomatic RP Attacks Change from Baseline, Median [1]: −7.00 | Weekly Symptomatic RP Attacks Percent Change from Baseline, Mean (SD) [1]: −33.33% | Weekly Symptomatic RP Attacks Percent Change from Baseline, Median [1]: −33.33% | Weekly Symptomatic RP Attacks, Mean (SD) [1]: 14.00 | Weekly Symptomatic RP Attacks, Median [1]: 14.00 | Weekly Symptomatic RP Attacks Change from Baseline, Mean (SD) [2]: −7.00 | Weekly Symptomatic RP Attacks Change from Baseline, Median [2]: −7.00 | Weekly Symptomatic RP Attacks Percent Change from Baseline, Mean (SD) [2]: −33.33% | Weekly Symptomatic RP Attacks Percent Change from Baseline, Median [2]: −33.33% | Weekly Symptomatic RP Attacks, Mean (SD) [2]: 14.00 | Weekly Symptomatic RP Attacks, Median [2]: 14.00 | Weekly Symptomatic RP Attacks Change from Baseline, Mean (Cilnidipine 20 mg (N = 2)): −4.50 | Weekly Symptomatic RP Attacks Change from Baseline, Median (Cilnidipine 20 mg (N = 2)): −4.50 | Weekly Symptomatic RP Attacks Percent Change from Baseline, Mean (Cilnidipine 20 mg (N = 2)): −33.73% | Weekly Symptomatic RP Attacks Percent Change from Baseline, Median (Cilnidipine 20 mg (N = 2)): −33.73% | Weekly Symptomatic RP Attacks, Mean (Cilnidipine 20 mg (N = 2)): 8.00 | Weekly Symptomatic RP Attacks, Median (Cilnidipine 20 mg (N = 2)): 8.00 | Weekly Symptomatic RP Attacks Change from Baseline, Mean (SD) [3]: −4.50 (3.536) | Weekly Symptomatic RP Attacks Change from Baseline, Median [3]: −4.50 | Weekly Symptomatic RP Attacks Percent Change from Baseline, Mean (SD) [3]: −33.73 (7.296) % | Weekly Symptomatic RP Attacks Percent Change from Baseline, Median [3]: −33.73% | Weekly Symptomatic RP Attacks, Mean (SD) [3]: 8.00 (4.243) | Weekly Symptomatic RP Attacks, Median [3]: 8.00 | Weekly Symptomatic RP Attacks Change from Baseline, Mean (SD) [4]: −4.50 (3.536) | Weekly Symptomatic RP Attacks Change from Baseline, Median [4]: −4.50 | Weekly Symptomatic RP Attacks Percent Change from Baseline, Mean (SD) [4]: −33.73 (7.296) % | Weekly Symptomatic RP Attacks Percent Change from Baseline, Median [4]: −33.73% | Weekly Symptomatic RP Attacks, Mean (SD) [4]: 8.00 (4.243) | Weekly Symptomatic RP Attacks, Median [4]: 8.00 | Weekly Symptomatic RP Attacks Change from Baseline, Mean [5]: −4.67 | Weekly Symptomatic RP Attacks Change from Baseline, Median [5]: −4.00 | Weekly Symptomatic RP Attacks Percent Change from Baseline, Mean [5]: −40.21% | Weekly Symptomatic RP Attacks Percent Change from Baseline, Median [5]: −42.86% | Weekly Symptomatic RP Attacks, Mean [5]: 7.67 | Weekly Symptomatic RP Attacks, Median [5]: 5.00 | Weekly Symptomatic RP Attacks Change from Baseline, Mean (SD) [6]: −3.00 | Weekly Symptomatic RP Attacks Change from Baseline, Median [6]: −3.00 | Weekly Symptomatic RP Attacks Percent Change from Baseline, Mean (SD) [6]: −42.86% | Weekly Symptomatic RP Attacks Percent Change from Baseline, Median [6]: −42.86% | Weekly Symptomatic RP Attacks, Mean (SD) [6]: 4.00 | Weekly Symptomatic RP Attacks, Median [6]: 4.00 | Weekly Symptomatic RP Attacks Change from Baseline, Mean (SD) [7]: −5.50 (2.121) | Weekly Symptomatic RP Attacks Change from Baseline, Median [7]: −5.50 | Weekly Symptomatic RP Attacks Percent Change from Baseline, Mean (SD) [7]: −38.89 (7.857) % | Weekly Symptomatic RP Attacks Percent Change from Baseline, Median [7]: −38.89% | Weekly Symptomatic RP Attacks, Mean (SD) [7]: 9.50 (6.364) | Weekly Symptomatic RP Attacks, Median [7]: 9.50 | Weekly Symptomatic RP Attacks Change from Baseline, Mean (SD) [8]: −4.67 (2.082) | Weekly Symptomatic RP Attacks Change from Baseline, Median [8]: −4.00 | Weekly Symptomatic RP Attacks Percent Change from Baseline, Mean (SD) [8]: −40.21 (6.009) % | Weekly Symptomatic RP Attacks Percent Change from Baseline, Median [8]: −42.86% | Weekly Symptomatic RP Attacks, Mean (SD) [8]: 7.67 (5.508) | Weekly Symptomatic RP Attacks, Median [8]: 5.00 | Weekly Symptomatic RP Attacks Change from Baseline, Mean [9]: −3.63 | Weekly Symptomatic RP Attacks Change from Baseline, Median [9]: −3.50 | Weekly Symptomatic RP Attacks Percent Change from Baseline, Mean [9]: −25.00% | Weekly Symptomatic RP Attacks Percent Change from Baseline, Median [9]: −28.17% | Weekly Symptomatic RP Attacks, Mean [9]: 9.75 | Weekly Symptomatic RP Attacks, Median [9]: 10.50 | Weekly Symptomatic RP Attacks Change from Baseline, Mean (SD) [10]: −0.50 | Weekly Symptomatic RP Attacks Change from Baseline, Median [10]: −0.50 | Weekly Symptomatic RP Attacks Percent Change from Baseline, Mean (SD) [10]: −4.76% | Weekly Symptomatic RP Attacks Percent Change from Baseline, Median [10]: −4.76% | Weekly Symptomatic RP Attacks, Mean (SD) [10]: 10.00 | Weekly Symptomatic RP Attacks, Median [10]: 10.00 | Weekly Symptomatic RP Attacks Change from Baseline, Mean (SD) [11]: −4.67 (2.517) | Weekly Symptomatic RP Attacks Change from Baseline, Median [11]: −5.00 | Weekly Symptomatic RP Attacks Percent Change from Baseline, Mean (SD) [11]: −31.75 (6.199) % | Weekly Symptomatic RP Attacks Percent Change from Baseline, Median [11]: −28.57% | Weekly Symptomatic RP Attacks, Mean (SD) [11]: 9.67 (4.163) | Weekly Symptomatic RP Attacks, Median [11]: 11.00 | Weekly Symptomatic RP Attacks Change from Baseline, Mean (SD) (Pooled Cilnidipine 20 mg and Cilnidipine 20 mg + Tadalafil 5 mg, n 4, Excluding Outliers): −3.63 (2.926)
